Where two headings read alike, the source gives them in different places.
How the values were obtained:
[1] = test system: EKVX; experiment: NCI 60 antitumor screening (single dose / five doses); type: cell-based; details: Homo sapiens, read-out: Growth inhibition percentage (GI %)
[2] = test system: RPMI-8226; experiment: as above; type: cell-based; details: Homo sapiens
[3] = test system: MALME-3M; experiment: as above; type: cell-based; details: Homo sapiens, read-out: Growth inhibition percentage (GI %)
[4] = test system: SR; experiment: as above; type: cell-based; details: Homo sapiens, read-out: Growth inhibition percentage (GI %)
[5] = test system: SW-620; experiment: as above; type: cell-based, human; details: Homo sapiens
[6] = test system: SNB-19; experiment: NCI 60 antitumor screening (single dose); type: cell-based; details: Homo sapiens; SNB-19 (CNS cancer), single dose 10 μM; read-out: Growth inhibition percentage (GI %)
In short: (§1)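 NCI-60 protocol: single 10 μM dose against each cell line, run in triplicate. Percent growth (G%) of treated cells measured and growth inhibition reported as GI% = 100 − G%; panel mean also given.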

[7] = test system: OVCAR-5; experiment: NCI 60 antitumor screening (single dose); type: cell-based; details: Homo sapiens
In short: (§2)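 Under the NCI Drug Evaluation Branch protocol, each compound is screened at one 10 μM concentration on the 60-line human tumour panel. Growth of treated cells is expressed as G%, and inhibition is reported as 100 − G%.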

[8] = test system: NCI-H522; experiment: NCI 60 antitumor screening (single dose); type: cell-based; details: Homo sapiens; NCI-H522 (non-small cell lung cancer), single dose 10 μM; read-out: Growth inhibition percentage (GI %)
In short: as §2

[9] = test system: TK-10; experiment: NCI 60 antitumor screening (single dose); type: cell-based; details: Homo sapiens
In short: as §1

[10] = test system: A549/ATCC; experiment: NCI 60 antitumor screening (single dose); type: cell-based; details: Homo sapiens; A549/ATCC (non-small cell lung cancer), single dose 10 μM; read-out: Growth inhibition percentage (GI %)
In short: as §1

[11] = test system: NCI-H322M; experiment: NCI 60 antitumor screening (single dose); type: cell-based; details: Homo sapiens; NCI-H322M (non-small cell lung cancer), single dose 10 μM; read-out: Growth inhibition percentage (GI %)
In short: as §1

[12] = test system: HCC-2998; experiment: NCI 60 antitumor screening (single dose); type: cell-based; details: Homo sapiens; HCC-2998 (colon cancer), single dose 10 μM; read-out: Growth inhibition percentage (GI %)
In short: as §2

[13] = test system: OVCAR-3; experiment: NCI 60 antitumor screening (single dose); type: cell-based; details: Homo sapiens
In short: as §1

[14] = test system: OVCAR-4; experiment: NCI 60 antitumor screening (single dose); type: cell-based; details: Homo sapiens
In short: as §1

[15] = test system: NCI-H23; experiment: NCI 60 antitumor screening (single dose); type: cell-based; details: Homo sapiens; NCI-H23 (non-small cell lung cancer), single dose 10 μM; read-out: Growth inhibition percentage (GI %)
In short: as §2

[16] = test system: KM 12; experiment: NCI 60 antitumor screening (single dose); type: cell-based; details: Homo sapiens, KM12; KM 12 (colon cancer), single dose 10 μM; read-out: Growth inhibition percentage (GI %)
In short: as §1

[17] = test system: NCI-H460; experiment: NCI 60 antitumor screening (single dose); type: cell-based; details: Homo sapiens; NCI-H460 (non-small cell lung cancer), single dose 10 μM; read-out: Growth inhibition percentage (GI %)
In short: as §2

[18] = test system: SK-OV-3; experiment: NCI 60 antitumor screening (single dose); type: cell-based; details: Homo sapiens
In short: as §2

[19] = test system: NCI-H226; experiment: NCI 60 antitumor screening (single dose); type: cell-based; details: Homo sapiens; NCI-H226 (non-small cell lung cancer), single dose 10 μM; read-out: Growth inhibition percentage (GI %)
In short: as §1

[20] = test system: HOP-62; experiment: NCI 60 antitumor screening (single dose); type: cell-based; details: Homo sapiens; HOP-62 (non-small cell lung cancer), single dose 10 μM; read-out: Growth inhibition percentage (GI %)
In short: as §2

[21] = test system: CAKI-1; experiment: NCI 60 antitumor screening (single dose); type: cell-based; details: Homo sapiens
In short: as §1

[22] = test system: OVCAR-8; experiment: NCI 60 antitumor screening (single dose); type: cell-based; details: Homo sapiens
In short: as §1

[23] = test system: U251; experiment: NCI 60 antitumor screening (single dose); type: cell-based; details: Homo sapiens, U-251; U251 (CNS cancer), single dose 10 μM; read-out: Growth inhibition percentage (GI %)
In short: as §2

[24] = test system: HS 578T; experiment: NCI 60 antitumor screening (single dose); type: cell-based; details: Homo sapiens, read-out: Growth inhibition percentage (GI %)
In short: as §1

[25] = test system: M14; experiment: NCI 60 antitumor screening (single dose); type: cell-based; details: Homo sapiens
In short: as §1

[26] = test system: PC-3; experiment: NCI 60 antitumor screening (single dose); type: cell-based; details: Homo sapiens
In short: as §1

[27] = test system: NCI/ADR-RES; experiment: NCI 60 antitumor screening (single dose / five doses); type: cell-based; details: Homo sapiens, read-out: Growth inhibition percentage (GI %)
[28] = EKVX (non-small cell lung cancer), single dose 10 μM
[29] = RPMI-8226 (leukaemia), single dose 10 μM, read-out: Growth inhibition percentage (GI %)
[30] = MALME-3M (melanoma), single dose 10 μM
[31] = SR (leukaemia), single dose 10 μM
[32] = SW-620 (colon cancer), single dose 10 μM, read-out: Growth inhibition percentage (GI %)
[33] = OVCAR-5 (ovarian cancer), single dose 10 μM, read-out: Growth inhibition percentage (GI %)
[34] = TK-10 (renal cancer), single dose 10 μM, read-out: Growth inhibition percentage (GI %)
[35] = OVCAR-3 (ovarian cancer), single dose 10 μM, read-out: Growth inhibition percentage (GI %)
[36] = OVCAR-4 (ovarian cancer), single dose 10 μM, read-out: Growth inhibition percentage (GI %)
[37] = SK-OV-3 (ovarian cancer), single dose 10 μM, read-out: Growth inhibition percentage (GI %)
[38] = CAKI-1 (renal cancer), single dose 10 μM, read-out: Growth inhibition percentage (GI %)
[39] = OVCAR-8 (ovarian cancer), single dose 10 μM, read-out: Growth inhibition percentage (GI %)
[40] = HS 578T (breast cancer), single dose 10 μM
[41] = M14 (melanoma), single dose 10 μM, read-out: Growth inhibition percentage (GI %)
[42] = PC-3 (prostate cancer), single dose 10 μM, read-out: Growth inhibition percentage (GI %)
[43] = NCI/ADR-RES (ovarian cancer), single dose 10 μM

Row | SMILES | inhibition at 10 µM [1, 28] [%] | inhibition at 10 µM [2, 29] [%] | inhibition at 10 µM [3, 30] [%] | inhibition at 10 µM [4, 31] [%] | inhibition at 10 µM [5, 32] [%] | inhibition at 10 µM [6] [%] | inhibition at 10 µM [7, 33] [%] | inhibition at 10 µM [8] [%] | inhibition at 10 µM [9, 34] [%] | inhibition at 10 µM [10] [%] | inhibition at 10 µM [11] [%] | inhibition at 10 µM [12] [%] | inhibition at 10 µM [13, 35] [%] | inhibition at 10 µM [14, 36] [%] | inhibition at 10 µM [15] [%] | inhibition at 10 µM [16] [%] | inhibition at 10 µM [17] [%] | inhibition at 10 µM [19] [%] | inhibition at 10 µM [20] [%] | inhibition at 10 µM [23] [%] | also measured
1 | Clc1cccc(/C=N/Nc2nc(N/N=C/c3cccc(Cl)c3Cl)nc(N3CCOCC3)n2)c1Cl [compound 6h, 2,4-Bis[(E)-2-[(2,3-Dichlorophenyl)methylidene]hydrazin-1-yl]-6-(morpholin-4-yl)-1,3,5-triazine] | 24.4 | 12.1 | 2.72 | 51.9 | -6.25 | 12.3 | -10.2 | 21.4 | -29.2 | 3.4 | 11.9 | -6.13 | -2.72 | 3.18 | 25.5 | 8.19 | -0.07 | 14.6 | -3.7 | 21 | inhibition at 10 µM [18, 37]: -15.1%; inhibition at 10 µM [21, 38]: -1.35%; inhibition at 10 µM [22, 39]: 44.6%; inhibition at 10 µM [24, 40]: -8.95%; inhibition at 10 µM [25, 41]: -4.08%; inhibition at 10 µM [26, 42]: 14.5%; inhibition at 10 µM [27, 43]: 34.2%
2 | O=[N+]([O-])c1cc(/C=N/Nc2nc(N/N=C/c3ccc(Cl)c([N+](=O)[O-])c3)nc(N3CCOCC3)n2)ccc1Cl [compound 6i, 2,4-Bis[(E)-2-[(4-Chloro-3-nitrophenyl)methylidene]hydrazin-1-yl]-6-(morpholin-4-yl)-1,3,5-triazine] | – | – | – | – | – | 0.85 | – | 0.32 | – | -8.71 | 2.28 | -5.78 | – | – | 3.66 | 6.79 | -1.58 | -3.53 | -5.02 | -5.95 | inhibition at 10 µM ([1]; EKVX): 0.07%; inhibition at 10 µM ([2]; RPMI-8226, read-out: Growth inhibition percentage (GI %)): 42.8%; inhibition at 10 µM ([3]; Malme-3M): -29.9%; inhibition at 10 µM ([4]; SR): 18.5%; inhibition at 10 µM ([5]; SW-620, read-out: Growth inhibition percentage (GI %)): -6.94%; inhibition at 10 µM ([7]; OVCAR-5, read-out: Growth inhibition percentage (GI %)): -9.28%; inhibition at 10 µM ([9]; TK-10, read-out: Growth inhibition percentage (GI %)): -24.4%; inhibition at 10 µM ([13]; OVCAR-3, read-out: Growth inhibition percentage (GI %)): -10%; inhibition at 10 µM ([14]; OVCAR-4, read-out: Growth inhibition percentage (GI %)): -12.5%; inhibition at 10 µM ([18]; SK-OV-3, read-out: Growth inhibition percentage (GI %)): -22.5%; inhibition at 10 µM ([21]; CAKI-1, read-out: Growth inhibition percentage (GI %)): -3.02%; inhibition at 10 µM ([22]; OVCAR-8, read-out: Growth inhibition percentage (GI %)): 3.42%; inhibition at 10 µM ([24]; Hs-578T): -5.27%; inhibition at 10 µM ([25]; M14, read-out: Growth inhibition percentage (GI %)): -11.5%; inhibition at 10 µM ([26]; PC-3, read-out: Growth inhibition percentage (GI %)): -0.63%; inhibition at 10 µM ([27]; NCI/ADR-RES): -0.3%
3 | Oc1ccc(/C=N/Nc2nc(N/N=C/c3ccc(O)c(O)c3)nc(N3CCOCC3)n2)cc1O [compound 6j, 4-[(1e)-(2-{4-[(E)-2-[(3,4-Dihydroxyphenyl)methylidene]hydrazin-1-yl]-6-(morpholin-4-yl)-1,3,5-triazin-2-yl}hydrazin-1-ylidene)methyl]benzene-1,2-diol] | 5.31 | -3.09 | -4.04 | 8.3 | -3.6 | -4.37 | -3.8 | 3.1 | -9.62 | 1.02 | 9.4 | -6.4 | -4.79 | -1.23 | 0.57 | -1.91 | -7.99 | 1.59 | -5.33 | -3.1 | inhibition at 10 µM [18, 37]: -7.04%; inhibition at 10 µM [21, 38]: 0.69%; inhibition at 10 µM [22, 39]: -0.99%; inhibition at 10 µM [24, 40]: -5.42%; inhibition at 10 µM [25, 41]: -4.69%; inhibition at 10 µM [26, 42]: -5.8%; inhibition at 10 µM [27, 43]: -5.32%

Source: paper PMC9848300, “Discovery of novel enasidenib analogues targeting inhibition of mutant isocitrate dehydrogenase 2 as antileukaemic agents” (Journal of Enzyme Inhibition and Medicinal Chemistry, 2023)
